What follows are molecules tested against T1, receptor interacting protein kinase 1 (GST-hRIPK1 (8-327)) (Homo sapiens, UniProt Q13546) (assay: Fluorescent Polarization Binding (FP Binding) assay). Settings: 10 nM GST-hRIPK1 (8-327), 5 nM fluorescent-labeled ligand, 30 min at RT.
T1 construct: GST-hRIPK1 (8-327) enzyme was generated by Proteros GmbH by Baculovirus expression system
T1 sequence (Q13546 8-327): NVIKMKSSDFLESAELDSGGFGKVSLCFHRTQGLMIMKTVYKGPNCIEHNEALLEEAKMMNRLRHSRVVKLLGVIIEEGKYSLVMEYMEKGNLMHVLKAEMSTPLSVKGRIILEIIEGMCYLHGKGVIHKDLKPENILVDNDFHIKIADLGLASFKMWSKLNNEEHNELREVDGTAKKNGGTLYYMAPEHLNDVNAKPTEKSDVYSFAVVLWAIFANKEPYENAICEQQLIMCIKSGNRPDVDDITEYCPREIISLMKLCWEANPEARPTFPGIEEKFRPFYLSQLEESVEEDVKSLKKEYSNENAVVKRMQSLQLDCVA
Description: Fluorescent Polarization Binding (FP Binding) assay (Berger S. B. et al. (2015) Cell Death Discovery, 1: 15009; Maki J. L. et al. (2012) Anal Biochem., 427(2): 164-174) was performed in polystyrene low volume 384-well black plate, at Room Temperature (RT) in a final volume of 10.1 μl/well using 10 nM of GST-hRIPK1 (8-327) enzyme and 5 nM of fluorescent-labeled ligand (14-(2-{[3-({2-{[4-(cyanomethyl)phenyl]amino}-6-[(5-cyclopropyl-1H-pyrazol-3-yl)amino]-4-pyrimidinyl}amino) propyl]amino}-2-oxoethyl)-16,16,18,18-tetramethyl-6,7,7a,8a,9,10,16,18-octahydrobenzo[2″3″]indolizino[8″, 0.7″:5′,6′]pyrano[3′,2′:3,4]pyrido[1,2-a]indol-5-ium-2-sulfonate.
Test compounds were serially diluted in DMSO at 100 fold final concentrations in the assay (1% DMSO final). In each well of a 384-well Plate were dispensed 0.1 μL of compound solution (or DMSO for controls) followed by 5 μL of GST-hRIPK1 (8-327) at twice the final concentrations in assay-buffer (50 mM HEPES pH 7.5, 10 mM NaCl, 50 mM MgCl2, 0.02% CHAPS, 0.5 mM DTT and 0.01% Pluronic F127). For negative control the enzyme addition was replaced by assay buffer only.
After addition of 5 μL of fluorescent-labeled ligand at twice the final concentrations in assay buffer, the plate was incubated at RT for 30 min. At the end, the binding was measured as FP value with the Envision (PerkinElmer) plate reader using filter for an excitation λ=531 nm FP and an emission λ=595 nm FP (S & P-pol).
Test compound inhibition was expressed as percent inhibition of internal assay controls. For concentration response curves, normalized data is fit and IC50 determined using XL-fit (IDBS) for Excel. IC50 were averaged to determine a mean value, for a minimum of two independent experiments.
Receptor interacting protein kinase 1 activity of exemplary compounds was determined according to the above general procedures.
Receptor interacting protein kinase 1 activity of certain compounds was determined according to the above general procedures.

| SMILES | IC50 [nM] |
| --- | --- |
| CC(C)(C)C(=O)N1OCC[C@@H]1c1ccnc(F)c1 [Compound 45, 1-[(3R)-3-(2-Fluoropyridin-4-yl)-1,2-oxazolidin-2-yl]-2,2-dimethylpropan-1-one] | 1000 to 10000 |
| CC(C)(C)C(=O)N1OCC[C@H]1c1ccnc(F)c1 [Compound 46, 1-[(3S)-3-(2-Fluoropyridin-4-yl)-1,2-oxazolidin-2-yl]-2,2-dimethylpropan-1-one] | < 1000 |
| O=C(N1OCC[C@H]1c1ccccc1)C1(C(F)(F)F)CC1 [Compound 54, (3S)-3-Phenyl-2-[1-(trifluoromethyl)cyclo-propanecarbonyl]-1,2-oxazolidine] | < 1000 |
| CC(C)(C(=O)N1OCC[C@H]1c1ccccc1)C(F)(F)F [Compound 55, 3,3,3-Trifluoro-2,2-dimethyl-1-[(3S)-3-phenyl-1,2-oxazolidin-2-yl]propan-1-one] | < 1000 |
| CC1(C(=O)N2OCC[C@H]2c2ccccc2)CC(F)(F)C1 [Compound 57, (3S)-2-(3,3-difluoro-1-methylcyclobutane-carbonyl)-3-phenyl-1,2-oxazolidine] | < 1000 |
| CC(C)(C)C(=O)N1OCCC1c1cccnc1 (stereo not shown) [Compound 58, 2,2-Dimethyl-1-[3-(pyridin-3-yl)-1,2-oxazolidin-2-yl]propan-1-one] | < 1000 |
| CC(C)(C)C(=O)N1OCC[C@@H]1c1cccnc1F [Compound 63, 1-[(3R)-3-(2-Fluoropyridin-3-yl)-1,2-oxazolidin-2-yl]-2,2-dimethylpropan-1-one] | 1000 to 10000 |
| CC(C)(C)C(=O)N1OCC[C@H]1c1cccnc1F [Compound 66, 1-[(3S)-3-(2-Fluoropyridin-3-yl)-1,2-oxazolidin-2-yl]-2,2-dimethylpropan-1-one] | < 1000 |
| CC(C)(C)C(=O)N1OCC[C@@H]1c1c(F)cccc1F [Compound 67, 1-[(3R)-3-(2,6-Difluorophenyl)-1,2-oxazolidin-2-yl]-2,2-dimethylpropan-1-one] | 1000 to 10000 |
| CC(C)(C)C(=O)N1OCC[C@H]1c1c(F)cccc1F [Compound 68, 1-[(3S)-3-(2,6-Difluorophenyl)-1,2-oxazolidin-2-yl]-2,2-dimethylpropan-1-one] | < 1000 |
| O=C([C@H]1C[C@H](O)C1)N1OCC[C@H]1c1ccccc1 [Compound 75, (1r,3r)-3-[(3S)-3-Phenyl-1,2-oxazolidine-2-carbonyl]cyclobutan-1-ol] | 1000 to 10000 |
| CC(C)(C)C(=O)N1OCC[C@H]1c1ccc(Cl)cn1 [Compound 89, 1-[(3S)-3-(5-chloropyridin-2-yl)-1,2-oxazolidin-2-yl]-2,2-dimethylpropan-1-one] | < 1000 |
| CC1(S(=O)(=O)N2OCC[C@H]2c2ccc(F)nc2)CC1 [Compound 93, 2-fluoro-5-[(3S)-2-[(1-methylcyclopropyl)sulfonyl]-1,2-oxazolidin-3-yl]pyridine] | 1000 to 10000 |
| Cc1cnc([C@@H]2CCON2C(=O)C(C)(C)CC#N)cn1 [Compound 104, 3,3-dimethyl-4-[(3S)-3-(5-methylpyrazin-2-yl)-1,2-oxazolidin-2-yl]-4-oxobutanenitrile] | < 1000 |
| CC(C)(C)C(=O)N1OCC[C@H]1c1ccc(C(F)F)nc1 [Compound 105, 1-[(3S)-3-[6-(difluoromethyl)pyridin-3-yl]-1,2-oxazolidin-2-yl]-2,2-dimethylpropan-1-one] | < 1000 |
| CC(C)(C)C(=O)N1OCC[C@H]1c1ccn2ccnc2c1 [Compound 110, 1-[(3S)-3-{imidazo[1,2-A]pyridin-7-yl}-1-oxazolidin-2-yl]-2,2-dimethylpropan-1-one] | < 1000 |
| CC(C)(C)C(=O)N1OCC[C@H]1c1cn2ccccc2n1 [Compound 111, 1-(3S)-3-{imidazo[1,2-A]pyridin-2-yl}-1,2-oxazolidin-2-yl-2,2-dimethylpropan-1-one] | 1000 to 10000 |
| CC(C)(C)C(=O)N1OCC[C@H]1c1ccc(C(F)(F)F)nc1 [Compound 120] | < 1000 |
| CC(C)(C)C(=O)N1OCC[C@H]1c1ncc(Cl)cc1F [Compound 121, 1-[(3S)-3-(5-chloro-3-fluoropyridin-2-yl)-1,2-oxazolidin-2-yl]-2,2-dimethylpropan-1-one] | < 1000 |
| CC(C)(C)C(=O)N1OCC[C@H]1c1ccc(C(F)(F)F)cn1 [Compound 122, 2,2-dimethyl-(3S)-3-[5-(trifluoromethyl)pyridin-2-yl-1,2-oxazolidin-2-yl]propan-1-one] | < 1000 |
| CC(C)(C)C(=O)N1OCC[C@H]1c1nc(C(F)(F)F)cs1 [Compound 123, 2,2-dimethyl-1-[(3S)-3-[4-(trifluoromethyl)-1,3-thiazol-2-yl]-1,2-oxazolidin-2-yl]propan-1-one] | 1000 to 10000 |
| CC(C)(C)C(=O)N1OCC[C@H]1c1cc2ccccn2n1 [Compound 124, 2,2-dimethyl-1-[(3S)-3-{pyrazolo[1,5-A]pyridin-2-yl}-1,2-oxazolidin-2-yl]propan-1-one] | < 1000 |
| Cc1ncc([C@@H]2CCON2C(=O)C(C)(C)C)cn1 [Compound 125, 2,2-dimethyl-1-[(3S)-3-(2-methylpyrimidin-5-yl)-1,2-oxazolidin-2-yl]propan-1-one] | < 1000 |

The remaining lines, values ahead:

| IC50 [nM] | SMILES |
| --- | --- |
| 1000 to 10000 | CC(C)(C)OC(=O)N1CC(C)(C(=O)N2OCC[C@H]2c2ccc(F)cc2)C1 [Compound 44, tert-Butyl 3-[(3S)-3-(4-fluorophenyl)-1,2-oxazolidine-2-carbonyl]-3-methylazetidine-1-carboxylate] |
| < 1000 | CC(C)(C)C(=O)N1OCC[C@H]1c1ccc(Cl)cc1 [Compound 47, 1-[(3S)-3-(4-Chlorophenyl)-1,2-oxazolidin-2-yl]-2,2-dimethylpropan-1-one] |
| > 10000 | CC(C)(C)C(=O)N1OCC[C@@H]1c1ccc(Cl)cc1 [Compound 48, 1-[(3R)-3-(4-Chlorophenyl)-1,2-oxazolidin-2-yl]-2,2-dimethylpropan-1-one] |
| < 1000 | CC(C)(C)OC(=O)N1OCCC1c1ccc(Cl)cc1 (stereo not shown) [Compound 49, tert-Butyl 3-(4-chlorophenyl)-1,2-oxazolidine-2-carboxylate] |
| < 1000 | CC(C)(C)C(=O)N1OCC[C@H]1c1ccc(F)c(F)c1 [Compound 50, 1-[(3S)-3-(3,4-Difluorophenyl)-1,2-oxazolidin-2-yl]-2,2-dimethylpropan-1-one] |
| 1000 to 10000 | CC(C)(C)C(=O)N1OCC[C@@H]1c1ccc(F)c(F)c1 [Compound 51, 1-[(3R)-3-(3,4-Difluorophenyl)-1,2-oxazolidin-2-yl]-2,2-dimethylpropan-1-one] |
| < 1000 | CC(C)(F)C(=O)N1OCC[C@H]1c1ccccc1 [Compound 56, 2-Fluoro-2-methyl-1-[(3S)-3-phenyl-1,2-oxazolidin-2-yl]propan-1-one] |
| > 10000 | Cn1c(C#N)ccc1C(=O)N1OCC[C@@H]1c1ccc(F)cc1 [Compound 59, 5-[(3R)-3-(4-fluorophenyl)-1,2-oxazolidine-2-carbonyl]-1-methyl-1H-pyrrole-2-carbonitrile] |
| < 1000 | Cn1c(C#N)ccc1C(=O)N1OCC[C@H]1c1ccc(F)cc1 [Compound 60, 5-[(3S)-3-(4-fluorophenyl)-1,2-oxazolidine-2-carbonyl]-1-methyl-1H-pyrrole-2-carbonitrile] |
| > 10000 | CC(C)C(=O)N1OCC[C@@H]1c1ccc(F)cc1 [Compound 65, 1-[(3R)-3-(4-Fluorophenyl)-1,2-oxazolidin-2-yl]-2-methylpropan-1-one] |
| 1000 to 10000 | COCC1(C(=O)N2OCC[C@H]2c2ccccc2)CC1 [Compound 76, (3S)-2-[1-(Methoxymethyl)cyclo-propanecarbonyl]-3-phenyl-1,2-oxazolidine] |
| 1000 to 10000 | CC(C)(C)C(=O)N1OCC[C@@H]1c1cccc(F)c1 [Compound 82, (R)-1-(3-(3-fluorophenyl)isoxazolidin-2-yl)-2,2-dimethylpropan-1-one] |
| < 1000 | CC1(C(=O)N2OCC[C@H]2c2ccc(F)cc2)CN(CC(F)F)C1 [Compound 90, (3S)-2-[1-(2,2-difluoroethyl)-3-methylazetidine-3-carbonyl]-3-(4-fluorophenyl)-1,2-oxazolidine] |
| < 1000 | CC(C)(CO)C(=O)N1OCC[C@H]1c1ccc(F)cc1 [Compound 96, 1-[(3S)-3-(4-fluorophenyl)-1,2-oxazolidin-2-yl]-3-hydroxy-2,2-dimethylpropan-1-one] |

Source: US10709692B2, “Isoxazolidine derived inhibitors of receptor interacting protein kinase 1 (RIPK1)” (Denali Therapeutics Inc., priority 2015, dated 2020)
